# Measurements reported in patent publication US20140011853A1, “SUBSTITUTED 3-(BIPHENYL-3-YL)-8,8-DIFLUORO-4-HYDROXY-1-AZASPIRO[4.5]DEC-3-EN-2-ONES FOR THERAPY” (BAYER INTELLECTUAL PROPERTY GMBH, priority 2011, published 2014).
# Several values for one entry are separate records, joined by “and”; a condition that tells them apart may be missing. Equal entries are not always repeated.
# How the values were obtained:
# KM12 = experiment: Tumour cell proliferation, CellTiter-Glo, 96-hour incubation, KM12; format: cell-based; conditions: Homo sapiens, KM12, 96 h, read-out: KM12 IC50
# Experimental: (§1) In accordance with the invention, the substances were tested in cell-based assays for the ability of the substances of inhibiting tumour cell proliferation after a 96-hour incubation with the substance. Cell viability was tested using the CellTiter-Glo® luminescent cell viability assay (Promega). The cells were sown at a density of 2000-5000 cells/well (depending on the cell line) in 100 μl growth medium on 96-well microtiter plates. For each cell line examined, cells were sown on a separate plate to determine the luminescence at t=0 hours and t=96 hours. After overnight incubation at 37° C., the luminescence values for the t=0 samples were determined. The dose plates for the t=96 hours points in time were treated with substances diluted with growth medium. The cells were then incubated at 37° C. for 96 hours, and the luminescence values for the t=96 hours samples were then determined. For data analysis, the t=0 values were subtracted from the t=96 hours values for treated and untreated samples. The differences in luminescence in percent between substance-treated samples and control values were used to determine the growth inhibition in percent.
# (§2) The substances were tested in the following cell lines which represent the stated indications in an exemplary manner: […]
# human ACC1 = experiment: Human ACC1 enzyme assay (ADP-Glo); format: biochemical
# [1] = target: human serum albumin (HSA) (Homo sapiens, UniProt P02768); experiment: Protein binding to human serum albumin (HSA-Transil)
# MCF7 = experiment: Tumour cell proliferation, CellTiter-Glo, 96-hour incubation, MCF7; format: cell-based; conditions: Homo sapiens, MCF7, 96 h, read-out: MCF7 IC50
# Experimental: as §1, §2
# human ACC2 = human ACC2 (Homo sapiens, UniProt O00763); experiment: Human ACC2 enzyme assay (ADP-Glo); conditions: ACC 2 IC50, individual measurements
# Phaedon cochleariae = experiment: Phaedon test (PHAECO spray treatment); conditions: 500 g/ha, after 7 days
# [2] = Octanol/water distribution coefficient (logP/D), isocratic HPLC method; format: physicochemical; conditions: pH 7.4
# Text: Assay for Determining the Octanol/Water Distribution Coefficient (logP/D):
# The distribution coefficient octanol/water P or D is a key parameter for estimating membrane penetration and permeability. It is defined as the ratio of the equilibrium concentrations of a substance in the two-phase system octanol/water.
# It is usually stated in form of the decadic logarithm (logP or logD).
# logP describes the distribution behaviour of a substance exclusively present in its neutral form. logD describes the distribution behaviour of a substance at a certain pH; depending on the ionization constant pKa of the substance, some of the substance may be present in ionic form, and some in neutral form.
# The logP/D of the active compounds was determined using an isocratic HPLC method (HPLC=high performance liquid chromatography) (literature: OECD Guideline for Testing of Chemicals No. 117). The method is based on the correlation of the HPLC retention time of the test substance to that of reference substances with known distribution coefficients.
# The test substance was employed as a 10 mM solution in DMSO (DMSO=dimethyl sulphoxide). 10 μl of this solution were made up to 100 μl with a methanol/water mixture in a ratio of 7+3.
# The nine reference substances were dissolved individually in methanol. 100 μl each of the stock solutions were added to an HPLC vial and mixed with 300 μl of water.
# A formamide solution was used to determine the hold-up time. To this end, 7 mg of formamide were dissolved in 10 ml of methanol. 100 μl of this stock solution were mixed with 500 μl of methanol and 200 μl of water.
# All solutions were chromatographed using a flow rate of 1.00 ml/min.
# Injection Protocol: formamide, references, test substance 1, test substance 2, . . . , formamide, references.
# Evaluation of the retention times was carried out in a diode array detector (DAD) at 200-400 nm Via the molecular mass, the identity of the test substance was checked using the downstream mass spectrometer.
# The HPLC run was evaluated using the Waters software Masslynx 4.1.
# The logP/D values were calculated using the software “POW Determination” (proprietary development).
# H460 = experiment: Tumour cell proliferation, CellTiter-Glo, 96-hour incubation, H460; format: cell-based; conditions: Homo sapiens, NCI-H460, 96 h, read-out: H460 IC50
# Experimental: as §1, §2
# [3] = PC-3 prostate carcinoma xenograft model in the mouse; conditions: male, NMRI-nude (nu/nu), mouse, in vivo, po
# Experimental: (§3) Xenograft models in immunosuppressed mice were used to determine the antitumour activity in living organisms.
# (§4) Use was made primarily of a prostate carcinoma model with hormone-independent human PC-3 cells in male nude mice (NMRI-nude (nu/nu) mice, Taconic M&B A/S). To this end, 3 million tumour cells (suspended in medium+Matrigel) 1:1, final 0.1 ml) were injected subcutaneously into the side of each animal. When the tumours extended to an area of 20-30 mm^2., the mice were randomized into therapy groups and therapy was initiated. […] At this point in time, the experiment was terminated in all groups and the prepared tumours were weighed. The T/C value was calculated as primary success parameter using the effect on the final tumour weight: mean tumour weight in the treatment group divided by mean of the tumour weight in the vehicle group.
# (§5) Administration route: per os Vehicle: PEG400/ethanol/Solutol HS 15 (70/5/25, v/v/v) Administration volume: 10 ml/kg
# [4] = test system: PC-3 prostate carcinoma xenograft; experiment: as above; conditions: for T/C: 17 days, 2 administrations per day
# Experimental: as §3, §4, §5
# Sequence of human ACC2 (O00763 27-2458 limits assumed): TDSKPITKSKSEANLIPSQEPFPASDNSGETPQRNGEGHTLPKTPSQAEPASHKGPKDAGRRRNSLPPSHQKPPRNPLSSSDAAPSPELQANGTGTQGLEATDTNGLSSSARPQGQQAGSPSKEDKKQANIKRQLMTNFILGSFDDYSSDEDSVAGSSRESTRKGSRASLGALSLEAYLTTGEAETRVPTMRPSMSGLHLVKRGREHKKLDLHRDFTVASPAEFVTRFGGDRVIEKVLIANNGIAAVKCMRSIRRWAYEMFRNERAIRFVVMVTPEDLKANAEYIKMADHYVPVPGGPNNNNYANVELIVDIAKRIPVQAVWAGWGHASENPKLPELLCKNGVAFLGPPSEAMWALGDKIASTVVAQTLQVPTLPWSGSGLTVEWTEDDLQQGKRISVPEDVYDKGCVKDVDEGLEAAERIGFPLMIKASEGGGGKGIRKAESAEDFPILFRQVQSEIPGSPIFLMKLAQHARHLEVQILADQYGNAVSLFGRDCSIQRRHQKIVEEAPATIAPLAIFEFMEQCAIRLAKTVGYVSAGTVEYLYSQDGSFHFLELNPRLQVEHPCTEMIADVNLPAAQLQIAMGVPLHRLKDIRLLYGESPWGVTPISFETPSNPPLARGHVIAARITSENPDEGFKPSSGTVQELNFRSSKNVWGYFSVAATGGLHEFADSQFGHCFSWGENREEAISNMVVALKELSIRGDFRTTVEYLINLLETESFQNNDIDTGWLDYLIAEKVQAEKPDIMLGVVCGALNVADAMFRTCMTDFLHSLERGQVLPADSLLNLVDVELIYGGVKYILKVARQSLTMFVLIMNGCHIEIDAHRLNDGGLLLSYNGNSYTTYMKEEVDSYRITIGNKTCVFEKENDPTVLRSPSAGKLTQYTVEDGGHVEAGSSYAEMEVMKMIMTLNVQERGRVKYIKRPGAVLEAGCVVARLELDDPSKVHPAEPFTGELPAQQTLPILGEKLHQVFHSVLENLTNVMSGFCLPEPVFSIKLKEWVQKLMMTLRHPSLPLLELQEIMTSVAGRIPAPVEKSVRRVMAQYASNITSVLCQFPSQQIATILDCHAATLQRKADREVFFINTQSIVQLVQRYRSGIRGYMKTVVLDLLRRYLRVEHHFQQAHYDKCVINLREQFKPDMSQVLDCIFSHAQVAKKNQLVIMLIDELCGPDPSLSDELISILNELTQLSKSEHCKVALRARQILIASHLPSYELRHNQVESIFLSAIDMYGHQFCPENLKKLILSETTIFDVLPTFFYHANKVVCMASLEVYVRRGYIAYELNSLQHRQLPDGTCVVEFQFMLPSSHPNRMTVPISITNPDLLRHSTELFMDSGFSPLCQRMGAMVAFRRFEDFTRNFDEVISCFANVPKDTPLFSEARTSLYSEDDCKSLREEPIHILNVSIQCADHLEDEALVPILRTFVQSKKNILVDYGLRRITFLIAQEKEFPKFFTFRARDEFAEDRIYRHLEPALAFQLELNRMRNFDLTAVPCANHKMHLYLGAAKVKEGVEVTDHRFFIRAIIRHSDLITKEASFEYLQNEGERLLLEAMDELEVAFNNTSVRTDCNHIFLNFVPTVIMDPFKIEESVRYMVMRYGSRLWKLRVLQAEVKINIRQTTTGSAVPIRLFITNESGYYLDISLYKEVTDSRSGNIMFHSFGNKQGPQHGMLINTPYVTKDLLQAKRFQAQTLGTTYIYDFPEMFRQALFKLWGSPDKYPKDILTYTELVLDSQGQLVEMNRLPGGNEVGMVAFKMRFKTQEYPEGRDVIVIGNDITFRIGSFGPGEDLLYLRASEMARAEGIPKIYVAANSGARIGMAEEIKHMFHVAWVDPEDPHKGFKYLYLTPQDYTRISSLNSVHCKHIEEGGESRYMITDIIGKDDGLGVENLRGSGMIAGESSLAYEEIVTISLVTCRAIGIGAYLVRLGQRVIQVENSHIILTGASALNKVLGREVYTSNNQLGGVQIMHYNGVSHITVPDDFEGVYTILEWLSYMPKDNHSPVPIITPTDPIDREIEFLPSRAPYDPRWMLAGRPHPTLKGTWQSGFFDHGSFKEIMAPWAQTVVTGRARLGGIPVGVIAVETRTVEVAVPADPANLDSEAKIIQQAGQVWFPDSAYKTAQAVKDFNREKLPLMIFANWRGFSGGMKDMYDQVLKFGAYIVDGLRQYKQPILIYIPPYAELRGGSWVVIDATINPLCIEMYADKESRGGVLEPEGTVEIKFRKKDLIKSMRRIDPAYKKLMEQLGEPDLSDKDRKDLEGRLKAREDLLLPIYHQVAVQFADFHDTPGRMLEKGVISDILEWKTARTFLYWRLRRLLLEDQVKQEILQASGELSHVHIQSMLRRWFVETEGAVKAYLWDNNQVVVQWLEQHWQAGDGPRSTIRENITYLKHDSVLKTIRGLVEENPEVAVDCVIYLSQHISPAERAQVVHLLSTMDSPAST
# Sequence of human serum albumin (HSA) (P02768 25-609): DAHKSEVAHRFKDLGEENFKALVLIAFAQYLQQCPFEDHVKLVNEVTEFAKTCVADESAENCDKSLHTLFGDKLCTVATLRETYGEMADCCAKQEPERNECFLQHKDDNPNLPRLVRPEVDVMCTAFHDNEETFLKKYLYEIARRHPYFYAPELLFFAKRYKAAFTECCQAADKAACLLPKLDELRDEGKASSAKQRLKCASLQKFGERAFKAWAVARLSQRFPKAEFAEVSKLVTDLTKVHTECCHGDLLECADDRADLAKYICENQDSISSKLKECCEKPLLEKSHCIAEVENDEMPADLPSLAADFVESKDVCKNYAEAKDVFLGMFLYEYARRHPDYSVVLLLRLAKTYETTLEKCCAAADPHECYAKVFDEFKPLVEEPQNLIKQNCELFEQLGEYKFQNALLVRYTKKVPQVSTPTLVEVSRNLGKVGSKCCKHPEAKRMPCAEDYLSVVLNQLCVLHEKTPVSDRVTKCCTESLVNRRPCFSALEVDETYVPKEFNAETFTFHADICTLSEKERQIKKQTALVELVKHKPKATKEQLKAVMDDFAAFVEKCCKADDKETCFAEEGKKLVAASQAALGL
Structure (SMILES),IC50 (KM12) [nM],Selectivity ACC1 vs. ACC2 (mean of the individual measurements ± standard deviation) (human ACC1),Kd [1] [nM],IC50 (MCF7) [nM],IC50 (human ACC2),effect (kill of beetle larvae) (Phaedon cochleariae) [%],melting point [°C],chromatographic logP [2],IC50 (H460) [nM],AUC ([3]; 40 mg/kg) [µg·h/mL],AUC ([3]; 80 mg/kg) [µg·h/mL],T/C ([4]; 40 mg/kg per os),"T/C ([4]; 80 mg/kg day 1-3, 70 mg/kg from day 4 onwards, per os)","Reduction in body weight in individual animals ([4]; 80 mg/kg, 2 times per day, after 3 days)"
"Cc1ccc(-c2ccc(Cl)cc2)cc1C1=C(O)C2(CCC(F)(F)CC2)NC1=O [Example 1-2, 3-(4′-Chloro-4-methylbiphenyl-3-yl)-8,8-difluoro-4-hydroxy-1-azaspiro[4.5]dec-3-en-2-one]",58,13.4 ± 4.5,3860,30,2350 nM and 2070 nM and 2450 nM and 2790 nM and 650 nM and 1280 nM and 1230 nM and 1740 nM,100,105,1.73,134,–,–,–,–,–
"Cc1ccc(-c2ccc(Cl)c(F)c2)cc1C1=C(O)C2(CCC(F)(F)CC2)NC1=O [Example 1-1, 3-(4′-Chloro-3′-fluoro-4-methylbiphenyl-3-yl)-8,8-difluoro-4-hydroxy-1-azaspiro[4.5]dec-3-en-2-one]",28,–,3040,22,3370 nM and 2110 nM and 2510 nM and 3740 nM and 957 nM and 1910 nM and 2780 nM and 3240 nM,100,–,1.9,131,376,6080,0.26,0.26,more than 10%
